# In paper PMC8058344, “ARIH1 signaling promotes anti-tumor immunity by targeting PD-L1 for proteasomal degradation” (Nature Communications, 2021):
# Test system: 4T1 tumor xenograft
# Assay: 4T1 tumor xenograft model with ES-072 and/or anti-CTLA4
# Format: in vivo, BALB/c mice
# Experimental: Fig. 6 ARIH1 promotes anti-tumor immunity via PD-L1 degradation. a Immunoblot of PD-L1 and ARIH1 (HA) in H1975 cells transfected with HA-ARIH1 (WT or Y392C); HA-tagged empty vector (HA-EV) was transfected as a negative control. b Co-IP analysis for the interaction of K48-ubiquitin, ARIH1 (HA), and PD-L1 in HEK293T cells transfected with Flag-PD-L1 and HA-ARIH1 (WT or Y392C) in the presence of 10 μM MG132 for 6 h. c 4T1 cells were infected with an empty vector (CTRL) or two different ARIH1-overexpressing lentiviral preparations (OE#1 and OE#2). ARIH1 and PD-L1 levels were determined by immunoblotting. d–f Tumor growth (d, e) of CTRL (n = 10) and ARIH1-OE cells (n = 11) in BALB/c mice and final tumor weights (f). […]
# For xenograft model with 4T1 cells and combination therapy with ES-072 and anti-CTLA4, 5 × 10^5 4T1 cells suspended in 50 μL PBS and Matrigel (1 : 1 v/v) were injected into the fourth breast fat pad. On days 3 after injection, tumor size was measured and calculated by using the formula 1/2 × length × width^2. […]
# Excised tumors were digested in collagenase/hyaluronidase and DNase at 37 °C for 45 min to make cell suspension with a 45 μm filter (BD Bioscience). […] Data acquisition was performed using flow cytometry (Beckman Coulter Cytoflex) and data were analyzed using CytExpert V2.3 software. […]
compound,measurement,setting,value
C=CC(=O)Nc1cccc(Nc2nc(Nc3ccc(N4CCN(C)CC4)nc3OC)ncc2C(F)(F)F)c1 [ES-072],tumor growth,"4T1 cells in BALB/c mice, ES-072 60 mg/kg i.g. daily, anti-CTLA4 100 μg i.p. day 7, 10, 13",significantly decreased
same,PD-L1 levels in tumor lysates,"4T1 tumors, western blotting",decreased
